{"source": "paper PMC10828444", "about": "“Selective inhibition of overactive warmth-sensitive Ca^2+-permeable TRPV3 channels by antispasmodic agent flopropione for alleviation of skin inflammation” (The Journal of Biological Chemistry, 2023)", "format_in_all_cases": "cell-based", "key": {"hTRPV3 I505A mutant": {"molecular_target": "T1, hTRPV3 I505A mutant (Homo sapiens, UniProt Q8NET8, I505A)", "T1 construct": "expressed in transfected cells; host or cells: HEK293", "T1 sequence (Q8NET8 1-790 I505A)": "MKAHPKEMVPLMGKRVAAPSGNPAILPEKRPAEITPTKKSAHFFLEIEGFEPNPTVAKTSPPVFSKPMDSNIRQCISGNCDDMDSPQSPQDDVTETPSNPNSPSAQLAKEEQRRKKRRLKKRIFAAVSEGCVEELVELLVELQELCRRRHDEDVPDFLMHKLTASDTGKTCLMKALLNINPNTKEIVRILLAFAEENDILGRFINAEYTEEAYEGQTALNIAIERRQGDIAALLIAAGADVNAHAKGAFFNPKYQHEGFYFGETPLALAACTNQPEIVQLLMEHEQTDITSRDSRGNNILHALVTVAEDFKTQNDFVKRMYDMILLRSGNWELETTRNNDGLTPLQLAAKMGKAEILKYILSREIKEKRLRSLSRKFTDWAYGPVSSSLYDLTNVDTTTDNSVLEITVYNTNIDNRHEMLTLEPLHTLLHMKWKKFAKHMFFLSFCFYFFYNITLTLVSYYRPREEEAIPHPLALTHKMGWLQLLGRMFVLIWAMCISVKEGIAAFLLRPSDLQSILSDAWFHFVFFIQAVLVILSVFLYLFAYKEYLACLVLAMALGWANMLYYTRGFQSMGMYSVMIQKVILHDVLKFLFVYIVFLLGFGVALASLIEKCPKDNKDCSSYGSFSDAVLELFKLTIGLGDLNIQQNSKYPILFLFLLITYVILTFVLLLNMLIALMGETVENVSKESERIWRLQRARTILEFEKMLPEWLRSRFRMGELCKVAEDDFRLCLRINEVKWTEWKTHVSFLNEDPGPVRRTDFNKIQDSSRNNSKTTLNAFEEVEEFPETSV", "assay": "Whole-cell recordings of TRPV3 I505A mutant", "settings": "100 μM flopropione, 2-APB", "method": "(§1) HEK293 cells were cultured in Dulbecco’s modified Eagle’s medium (DMEM, Gibco) containing 4.5 g/L D-glucose supplemented with 10% fetal bovine serum based at 37 °C with 5% CO2. For whole-cell patch-clamp recordings, cells were grown in glass coverslips for 24 h before transient transfections with 3000 ng cDNAs of hTRPV3 (gene accession number BC104866.1), hTRPV1 (accession number NM_080704.3), mTRPV2 (accession number NM_011706.2), hTRPV4 (accession number NM_021625.5), hTRPA1 (accession number NM_007332.3) and hTRPM8 (accession number NM_024080.5) into HEK293 cells grown in a 35-mm cell culture dish using Lipofectamine 2000 (Invitrogen). Cells were used 18 ∼ 24 h after transfection. All WT or mutant hTRPV3 plasmids were validated by DNA sequencing.\n(§2) Whole-cell patch clamp recordings of wild-type and mutants were carried out at room temperature using the HEKA EPC10 amplifier powered by PatchMaster software (HEKA) or MultiClamp 700B amplifier driven by Clampex 11.0.3 software. The borosilicate glass pipettes were pulled and fire-polished to 3∼6 MΩ using a DMZ universal electrode puller (Zeitz-Instruments, GmbH). Pipette solution and bath solution both contained (in mM): 130 NaCl, three HEPES, and 0.2 EDTA (pH = 7.4). Cell membrane potential was held at 0 mV, currents were recorded at a voltage ramp from −100 to +100 mV for 500-ms and analyzed at ±80 mV."}, "hTRPV3 channels": {"molecular_target": "T2, hTRPV3 channels (Homo sapiens, UniProt Q8NET8)", "T2 construct": "expressed in transfected cells; host or cells: HEK293", "T2 sequence (Q8NET8 1-790)": "T1 sequence (Q8NET8 1-790 I505A) with A505I", "assay": "Whole-cell patch-clamp of hTRPV3 currents activated by 2-APB in HEK293 cells", "method": "as §1, §2"}, "hTRPV4": {"molecular_target": "T3, hTRPV4 (Homo sapiens, UniProt Q9HBA0)", "T3 construct": "expressed in transfected cells; host or cells: HEK293", "assay": "Whole-cell patch-clamp of TRPV4 currents activated by GSK1016790A in HEK293 cells", "settings": "flopropione 100 μM, GSK1016790A 0.1 μM", "method": "as §1, §2"}}, "note": "Changes are numbered by the printed parent chain.", "data": [{"smiles": "CCC(=O)c1c(O)cc(O)cc1O", "note": "[flopropione]", "values": [{"measurement": "effect of I505 mutation on inhibition by flopropione", "setting": "hTRPV3 I505A mutant", "result": "partially reduced TRPV3 inhibition"}, {"measurement": "inhibition at 100 µM", "setting": "hTRPV3 channels; HEK293, flopropione 100 μmol/L, agonist 2-APB 50 μmol/L, read-out: inhibition of TRPV3 currents", "result": "~84", "unit": "%"}, {"measurement": "IC50", "setting": "hTRPV3 channels; whole-cell, HEK293, 50 μM 2-APB activation, n = 5, mean ± SD, read-out: IC50 of dose-dependent inhibition of TRPV3 currents", "result": "17.8 ± 3.5", "unit": "µM"}, {"measurement": "effect on TRPV4 currents", "setting": "hTRPV4", "result": "no effect"}]}]}
